The subject of one assay is Trichomonas hominis. Nature of the assay: in vitro protozoicidal test, LD50/LD100 within 3 minutes. It counts as cell-based.
The test system of the next assay is Amoeba proteus. The assay is described as above. It counts as cell-based.
For another assay, the system named is Gregarina blattarum. Nature of the assay: in vitro protozoicidal test, LD50/LD100 within 3 minutes, gregarines isolated from cockroaches. It counts as cell-based. The conditions noted are these: in Ringer's solution. The text has this:
For in vitro tests of antiprotozoal activity of the composition five reference organisms representing taxonomic groups to which pathogenic protozoa belong were selected, i.e: • Amoeba proteus—Chaos diffluens—a protozoan of the order Euamoebida, belonging to fifth supergroup of the Amoebozoa, living in waters. • Paramecium caudatum—a slipper animalcule representing the Ciliata orachs, living in waters. • Gregarina blattarum—gregarine isolated from cockroaches, representing the phylum Apicomplexa, living in the digestive tracts or body cavities of invertebrates. • Euglena gracilis—a protozoan living in water, representing the flagellates—Mastigophora, family Euglenaceae. • Trichomonas hominis—a protozoan living in the human colon, representing the Trichomonadidae.
The gregarines were isolated from the cockroaches and, after being placed on a watch slide, were treated with the products at different concentrations in Ringer's solution. Each sample contained ten individuals. […]
The mixture was heated at the boiling point, until the colour changed, under reflux for 20 minutes. […] Compositions I and II were then analysed for their antiprotozoal properties. […]
Individual acids, catalyst solution, essential oil and metal salt solutions were additionally analysed for protozoal properties. […] Observation under a fluorescence microscope with phase contrast was carried out.

A further assay relates to Trypanosoma cruzi. The conditions noted are these: read-out: inhibitory effect on 50% of the population (IC50); cited from earlier work.
The test system of assay [1] is Trypanosoma cruzi and Leishmania chagasi. The conditions noted are these: cited from earlier work.
The subject of assay [2] is Trypanosoma cruzi and different Leishmania species. The settings on record: cited from earlier work.
The mark [3] stands for this setting: death of 50% of individuals within 3 minutes.
Setting [4] is: death of 100% of individuals within 3 minutes.

These results are taken from patent US20230270810A1, “VETERINARY COMPOSITIONS FOR THE TREATMENT AND/OR PREVENTION OF PROTOZOAN DISEASES AND METHODS OF PREPARATION THEREOF” (ADIFEED SP. Z O. O., priority 2020, published 2023).

For orientation: IC50 means the concentration needed to halve the response being measured.

Regarding `Cc1ncc([N+](=O)[O-])n1CCO` [M, metronidazole], the LD50 with Trichomonas hominis (setting [3]) is recorded as 0.05%; in the assay with Amoeba proteus (setting [3]), 0.3%; in the assay on Gregarina blattarum (50% of individuals within 3 minutes) it was 0.13%. For the same molecule, the LD100 in the assay on Trichomonas hominis (setting [4]) turned out to be 0.1%; with Amoeba proteus (setting [4]) it was 0.5%; in the assay on Gregarina blattarum (100% of individuals within 3 minutes) it was 0.3%.

Regarding `CC1CS(=O)(=O)CCN1/N=C/c1ccc([N+](=O)[O-])o1` (stereo not drawn) [Nifurtimox], the 50% inhibitory concentration (IC50) in the assay on Trypanosoma cruzi is 6 µM; in assay [1], 0.3 to 0.4 µg/mL.

For the molecule `O=C(Cn1ccnc1[N+](=O)[O-])NCc1ccccc1` [benznidazole], the “values obtained (in vitro antiprotozoal activity)” value in assay [2] is 45.02 µg/mL.
